Reference: patent publication US12344606B2, “Next-generation modulators of stimulator of interferon genes (STING)” (RYVU THERAPEUTICS S.A., priority 2019, dated 2025)

Legend:
[1] = tested on: interferon regulatory factor (IRF) pathway in THP-1 dual cells; assay: THP-1 Dual reporter assay, IRF pathway (luciferase); assay type: cell-based; conditions: Homo sapiens, THP1-Dual; 18 h stimulation, luminescence
Description: (§1) Compounds of the present invention were tested for their activity using THP-1 dual cells (Invivogen, cat no. thpd-nfis) allowing for simultaneous study of NF-κB pathway and the interferon regulatory factor (IRF) pathway. THP-1 dual cells contain luciferase reporter gene under the control of an ISG54 (interferon-stimulated gene) minimal promoter in conjunction with five interferon-stimulated response elements and a secreted embryonic alkaline phosphatase reporter gene under the control an IFN (interferon)-β minimal promoter fused to five copies of the NF-κB consensus transcriptional response element with three copies of the c-Rel binding site. Following 18 h of stimulation with STING agonist, medium was collected and transferred onto fresh cell culture plate. To verify activity of the IRF pathway, luminescence activity was measured with standard laboratory plate reader immediately after addition 10 μl of the medium to 50 μl (or 40 μl) of luminescence reagent (Invivogen, cat. No. rep-qlc2). To verify activity of NF-κB pathway, 20 μl (or 10 μl) of the medium was mixed with 80 μl of a detection medium (Invivogen, cat. No. rep-qb2) and incubated for 2 hours (or 1 hour) at 37° C. in a humidified atmosphere containing 5% CO2. Next, absorbance at 630 nm (or 655 nm) was recorded using standard laboratory plate reader.

[2] = tested on: NF-κB pathway in THP-1 dual cells; assay: THP-1 Dual reporter assay, NF-κB pathway (SEAP); assay type: cell-based; conditions: Homo sapiens, THP1-Dual; 18 h stimulation, absorbance; read-out: THP1 Dual EC50 (μM) NFkB
Description: as §1

[3] = target: human STING (Homo sapiens, UniProt Q86WV6); assay: Fluorescence Thermal Shift assay (hSTING FTS binding assay); conditions: STING 0.1 mg/ml, 20 min preincubation, SyproOrange
Chain of human STING (Q86WV6 whole entry H232R): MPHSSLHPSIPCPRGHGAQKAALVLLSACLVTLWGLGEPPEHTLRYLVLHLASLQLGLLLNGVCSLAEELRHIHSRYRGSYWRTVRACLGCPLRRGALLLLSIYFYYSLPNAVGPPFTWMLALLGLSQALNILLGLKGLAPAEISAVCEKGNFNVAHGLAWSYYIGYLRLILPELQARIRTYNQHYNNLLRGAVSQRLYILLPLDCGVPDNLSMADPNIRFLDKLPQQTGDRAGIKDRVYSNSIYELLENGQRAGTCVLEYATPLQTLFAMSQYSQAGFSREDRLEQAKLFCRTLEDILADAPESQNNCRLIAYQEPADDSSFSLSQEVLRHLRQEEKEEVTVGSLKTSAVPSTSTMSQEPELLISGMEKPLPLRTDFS
Description: Compounds of the present invention were tested for binding to human STING in Fluorescence Thermal Shift assay. STING was preincubated with the compounds for 20 minutes in 50 mM Hepes, 150 mM NaCl, pH 7.5 in 16 μl volume, following by adding 4 μl of SyproOrange dye dilution (ThermoFisher, cat no. S-6651). Final STING concentration was 0.1 mg/ml. Thermal unfolding was performed in Real-Time PCR QuantStudio 6 Flex System (Applied Biosystems), from 25 to 99° C., with continuous ramp mode and ramp rate 0.033° C./s. The data were analyzed using Protein Thermal Shift Software (ThermoFisher).

SMILES | EC50 [1] | EC50 [2] | hSTING FTS binding assay (ΔT C.°) [3]
Cc1ccc(N2CCC[C@H](N(Cc3ccnc(C)c3)Cc3cn(C4CC4)c4cc(O)c(F)cc4c3=O)C2)cn1 [Example 59, 1-cyclopropyl-6-fluoro-7-hydroxy-3-({[(3S)-1-(6-methylpyridin-3-yl)piperidin-3-yl][(2-methylpyridin-4-yl)methyl]amino}methyl)-1,4-dihydroquinolin-4-one] | ≤ 1 µM | 1 to 10 µM | ++ (ΔTm>10° C.)
Cc1ccc(N2CCC[C@H](N(Cc3ccnc(C)c3)Cc3cn(C4CC4)c4[nH]c(=O)c(F)cc4c3=O)C2)cn1 [Example 43, 1-cyclopropyl-6-fluoro-7-hydroxy-3-({[(3S)-1-(6-methylpyridin-3-yl)piperidin-3-yl][(2-methylpyridin-4-yl)methyl]amino}methyl)-1,4-dihydro-1,8-naphthyridin-4-one] | ≥ 10 µM | ≥ 10 µM | ++ (ΔTm>10° C.)
Cc1ccc(N2CCC[C@H](N(Cc3ccnc(C)c3)Cc3cn(C4CC4)c4cc(N5CCNCC5)c(F)cc4c3=O)C2)cn1 [Example 47, 1-cyclopropyl-6-fluoro-3-({[(3S)-1-(6-methylpyridin-3-yl)piperidin-3-yl][(2-methylpyridin-4-yl)methyl]amino}methyl)-7-(piperazin-1-yl)-1,4-dihydroquinolin-4-one] | ≤ 1 µM | ≤ 1 µM | ++ (ΔTm>10° C.)
Cc1ccc(N2CCC[C@H](N(Cc3ccnc(C)c3)Cc3cn(C4CC4)c4cc(C5=CCCCC5)c(F)cc4c3=O)C2)cn1 [Example 57, 7-(cyclohex-1-en-1-yl)-1-cyclopropyl-6-fluoro-3-({[(3S)-1-(6-methylpyridin-3-yl)piperidin-3-yl][(2-methylpyridin-4-yl)methyl]amino}methyl)-1,4-dihydroquinolin-4-one] | ≤ 1 µM | ≤ 1 µM | –
COc1cc(CN(Cc2cn(C)c3ccccc3c2=O)C2CCCN(c3cnccn3)C2)ccn1 (stereo not drawn) [Example 4, 3-({[(2-methoxypyridin-4-yl)methyl][1-(pyrazin-2-yl)piperidin-3-yl]amino}methyl)-1-methyl-1,4-dihydroquinolin-4-one] | 1 to 10 µM | 1 to 10 µM | + (ΔTm<10° C.)
COc1cc(CN(Cc2cn(C3CC3)c3cc(N4CCN(C)CC4)c(F)cc3c2=O)[C@H]2CCCN(c3cccnc3)C2)ccn1 [Example 9, 1-cyclopropyl-6-fluoro-3-({[(2-methoxypyridin-4-yl)methyl][(3S)-1-(pyridin-3-yl)piperidin-3-yl]amino}methyl)-7-(4-methylpiperazin-1-yl)-1,4-dihydroquinolin-4-one] | ≤ 1 µM | ≤ 1 µM | ++ (ΔTm>10° C.)
COc1nc2c(cc1F)c(=O)c(CN(Cc1ccnc(C)c1)[C@H]1CCCN(c3ccc(C)nc3)C1)cn2C(C)C [Example 62, 6-fluoro-7-methoxy-3-({[(3S)-1-(6-methylpyridin-3-yl)piperidin-3-yl][(2-methylpyridin-4-yl)methyl]amino}methyl)-1-(propan-2-yl)-1,4-dihydro-1,8-naphthyridin-4-one] | ≤ 1 µM | ≤ 1 µM | –
Cc1cc(CN(Cc2cn(C3CC3)c3cc(Cl)c(F)cc3c2=O)[C@H]2CCCN(c3cccnc3)C2)ccn1 [Example 33, 7-chloro-1-cyclopropyl-6-fluoro-3-({[(2-methylpyridin-4-yl)methyl][(3S)-1-(pyridin-3-yl)piperidin-3-yl]amino}methyl)-1,4-dihydroquinolin-4-one] | ≤ 1 µM | ≤ 1 µM | –
Cc1ccc(N2CCC[C@H](N(Cc3ccnc(C)c3)Cc3cn(C4CC4)c4cc(C5COCCN5)ccc4c3=O)C2)cn1 (stereo partly drawn) [Example 64, 1-Cyclopropyl-3-({[(3S)-1-(6-methylpyridin-3-yl)piperidin-3-yl][(2-methylpyridin-4-yl)methyl]amino}methyl)-7-(morpholin-3-yl)-1,4-dihydroquinolin-4-one] | ≤ 1 µM | ≤ 1 µM | –
Cc1cc(CN(Cc2cn(C)c3ccccc3c2=O)[C@H]2CCCN(c3cccnc3)C2)n(C)n1 [Example 63, 3-({[(1,3-dimethyl-1H-pyrazol-5-yl)methyl][(3S)-1-(pyridin-3-yl)piperidin-3-yl]amino}methyl)-1-methyl-1,4-dihydroquinolin-4-one] | 1 to 10 µM | ≥ 10 µM | –
Cc1ccc(N2CCC[C@H](N(Cc3ccnc(C)c3)Cc3cn(C(C)C)c4nc(Cl)c(F)cc4c3=O)C2)cn1 [Example 61, 7-chloro-6-fluoro-3-({[(3S)-1-(6-methylpyridin-3-yl)piperidin-3-yl][(2-methylpyridin-4-yl)methyl]amino}methyl)-1-(propan-2-yl)-1,4-dihydro-1,8-naphthyridin-4-one] | ≤ 1 µM | ≤ 1 µM | –

The next lines start with the values.

EC50 [1] | EC50 [2] | hSTING FTS binding assay (ΔT C.°) [3] | SMILES
≤ 1 µM | ≤ 1 µM | – | Cc1ccc(N2CCC[C@H](N(Cc3ccnc(C)c3)Cc3cn(C)c4ccccc4c3=O)C2)cn1 [Example 7, 1-methyl-3-({[(3S)-1-(6-methylpyridin-3-yl)piperidin-3-yl][(2-methylpyridin-4-yl)methyl]amino}methyl)-1,4-dihydroquinolin-4-one]
1 to 10 µM | 1 to 10 µM | + (ΔTm<10° C.) | Cc1cc(CN(Cc2cn(C)c3ccccc3c2=O)[C@H]2CCCN(c3ccccn3)C2)ccn1 [Example 13, 1-methyl-3-({[(2-methylpyridin-4-yl)methyl][(3S)-1-(pyridin-2-yl)piperidin-3-yl]amino}methyl)-1,4-dihydroquinolin-4-one]
– | – | + (ΔTm<10° C.) | Cc1cc(CN(Cc2cn(C)c3ccccc3c2=O)[C@H]2CCCN(c3ccnc(Cl)n3)C2)ccn1 [Example 19, 3-({[(3S)-1-(2-chloropyrimidin-4-yl)piperidin-3-yl][(2-methylpyridin-4-yl)methyl]amino}methyl)-1-methyl-1,4-dihydroquinolin-4-one]
≥ 10 µM | ≥ 10 µM | ++ (ΔTm>10° C.) | Cc1cc(CN(Cc2cn(C)c3ccccc3c2=O)[C@H]2CCCN(c3cc(=O)[nH]cn3)C2)ccn1 [Example 22, 1-methyl-3-({[(2-methylpyridin-4-yl)methyl][(3S)-1-(6-oxo-1,6-dihydropyrimidin-4-yl)piperidin-3-yl]amino}methyl)-1,4-dihydroquinolin-4-one]
1 to 10 µM | 1 to 10 µM | + (ΔTm<10° C.) | Cc1cc(CN(Cc2cn(C)c3ccccc3c2=O)[C@H]2CCCN(c3ccncc3Br)C2)ccn1 [Example 15, 3-({[(3S)-1-(3-bromopyridin-4-yl)piperidin-3-yl][(2-methylpyridin-4-yl)methyl]amino}methyl)-1-methyl-1,4-dihydroquinolin-4-one]
1 to 10 µM | 1 to 10 µM | + (ΔTm<10° C.) | Cc1cc(CN(Cc2cn(C)c3ccccc3c2=O)[C@H]2CCCN(c3ccc(F)nc3)C2)ccn1 [Example 16, 3-({[(3S)-1-(6-fluoropyridin-3-yl)piperidin-3-yl][(2-methylpyridin-4-yl)methyl]amino}methyl)-1-methyl-1,4-dihydroquinolin-4-one]
≤ 1 µM | ≤ 1 µM | ++ (ΔTm>10° C.) | Cc1cc(CN(Cc2cn(C)c3cc(Br)ccc3c2=O)[C@H]2CCCN(c3cccnc3)C2)ccn1 [Example 23, 7-bromo-1-methyl-3-({[(2-methylpyridin-4-yl)methyl][(3S)-1-(pyridin-3-yl)piperidin-3-yl]amino}methyl)-1,4-dihydroquinolin-4-one]
≤ 1 µM | ≤ 1 µM | – | Cc1ccc(N2CCC[C@H](N(Cc3ccnc(C)c3)Cc3cn(C)c4c(Br)cccc4c3=O)C2)cn1 [Example 60, 8-bromo-1-methyl-3-({[(3S)-1-(6-methylpyridin-3-yl)piperidin-3-yl][(2-methylpyridin-4-yl)methyl]amino}methyl)-1,4-dihydroquinolin-4-one]
1 to 10 µM | 1 to 10 µM | – | Cc1cc(CN(Cc2cn(C)c3ccccc3c2=O)[C@H]2CCCN(c3cc(Cl)ncn3)C2)ccn1 [Example 17, 3-({[(3S)-1-(6-chloropyrimidin-4-yl)piperidin-3-yl][(2-methylpyridin-4-yl)methyl]amino}methyl)-1-methyl-1,4-dihydroquinolin-4-one]
1 to 10 µM | 1 to 10 µM | – | Cc1cc(CN(Cc2cn(C)c3ccccc3c2=O)[C@H]2CCCN(c3ccnc(Cl)n3)C2)ccn1 [Example 54, 3-({[(3S)-1-(2-chloropyrimidin-4-yl)piperidin-3-yl][(2-methylpyridin-4-yl)methyl]amino}methyl)-1-methyl-1,4-dihydroquinolin-4-one]
